The record followed here is BindingDB's records for doi:10.1016/j.bmc.2018.05.045 (University of Arizona, 2018).

Broadly, the Ki is the equilibrium dissociation constant of an inhibitor or competing ligand from its target. Lower therefore signals a stronger hold on the target. Usually EC50 stands for the concentration at which the effect is half-maximal.

In test [1] the target is T1, Kappa-type opioid receptor (Homo sapiens, UniProt P41145). Put plainly: Displacement of [3H]U69593 from KOR (unknown origin) expressed in HEK cells.
T1 sequence (P41145 whole entry): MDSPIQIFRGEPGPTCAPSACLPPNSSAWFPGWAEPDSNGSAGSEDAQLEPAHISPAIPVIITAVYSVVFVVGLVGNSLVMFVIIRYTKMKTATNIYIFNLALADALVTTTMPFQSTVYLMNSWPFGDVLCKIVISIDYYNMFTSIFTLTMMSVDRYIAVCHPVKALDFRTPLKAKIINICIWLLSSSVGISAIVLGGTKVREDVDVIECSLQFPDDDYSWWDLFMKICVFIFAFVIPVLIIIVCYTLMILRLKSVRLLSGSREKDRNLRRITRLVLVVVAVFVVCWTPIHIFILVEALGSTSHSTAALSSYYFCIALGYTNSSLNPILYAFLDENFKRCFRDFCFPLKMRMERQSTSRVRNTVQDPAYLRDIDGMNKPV
The target in test [2] is T1, Kappa-type opioid receptor. Put plainly: Agonist activity at KOR (unknown origin) expressed in HEK cells assessed as reduction in cAMP accumulation by split luciferase assay.

Where a SMILES comes first, the peptide text is derived from it.

Consider `CC1(C)SSC(C)(C)[C@H](NC(=O)[C@@H](N)Cc2ccc(O)cc2)C(=O)NCC(=O)N[C@@H](Cc2ccccc2)C(=O)N2CCN(CC2)C(=O)[C@H](Cc2ccccc2)NC(=O)CNC(=O)[C@H]1NC(=O)[C@@H](N)Cc1ccc(O)cc1` (HELM PEPTIDE1{Y.[Pen].G.F}|PEPTIDE2{Y.[Pen].G.F}|CHEM1{[C1CN([*:2])CCN1[*:1]]}$PEPTIDE1,PEPTIDE2,2:R3-2:R3|PEPTIDE1,CHEM1,4:R2-1:R1|PEPTIDE2,CHEM1,4:R2-1:R2$$$V2.0), for which the Ki in test [1] amounted to 5.6 nM. Also, the EC50 in test [2] is 269 nM.
